US10213415B2, “Compounds as opioid receptor modulators” (JANSSEN PHARMACEUTICA NV, priority 2004, dated 2019)
Several values for one entry are separate records, joined by “and”; a condition that tells them apart may be missing. Equal values may be shown once. Read-outs that look alike come from different tables or passages of the source.

Tests used:
[1] = target: T1, human mu opioid receptor (Homo sapiens, UniProt P35372); experiment: Human Mu Opioid Receptor Binding Assay (CHO membranes, 3H-Damgo); settings: read-out: hKi μ
T1 construct: purchased Perkin Elmer RBHOMM400UA; host or cells: Chinese Hamster Ovary cells (recombinant expression)
How it was run: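 Radioligand displacement of ³H-Damgo (diluted to 3.6 nM pre-mix) from recombinant human mu receptor in CHO membranes, 2 h, room temperature, 50 mM Tris pH 7.5 with 5 mM MgCl2. Bound label read by filtration and scintillation counting; 1 μM unlabelled Damgo defines nonspecific binding.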

[2] = target: T2, human delta subtype 2 opioid receptor (Homo sapiens, UniProt P41143); experiment: Human Delta Opioid Receptor Binding Assay (CHO membranes, 3H-Naltrindole); settings: read-out: hKi δ
T2 construct: purchased Perkin Elmer RBHODM400UA; host or cells: Chinese Hamster Ovary cells (recombinant expression)
How it was run: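 Compound displacement of tritiated naltrindole (6 nM working dilution) measured by scintillation counting after GF/C filtration. Receptor source: recombinant CHO membranes; buffer 50 mM Tris, 5 mM MgCl2, pH 7.5; 30 min room-temperature incubation. 1 μM cold naltrindole sets nonspecific binding.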

[3] = target: T3, mu opioid receptor (CHO-hMOR cell membranes) (Homo sapiens, UniProt P35372); experiment: Mu Opioid Receptor Functional Assay: [35S]GTPγS Binding in CHO-hMOR Cell Membranes, Versions 1 and 2; type: biochemical
T3 construct: purchased Receptor Biology, Inc. (Baltimore, Md.); host or cells: CHO cells (recombinant expression)
Description: CHO-hMOR cell membranes were purchased from Receptor Biology, Inc. (Baltimore, Md.). About 10 mg/ml of membrane protein was suspended in 10 mM TRIS-HCl pH 7.2, 2 mM EDTA, 10% sucrose, and the suspension kept on ice. One ml of membranes was added to 15 ml cold binding assay buffer containing 50 mM HEPES, pH 7.6, 5 mM MgCl2, 100 mM NaCl, 1 mM DTT and 1 mM EDTA. The membrane suspension was homogenized with a Polytron and centrifuged at 3,000 rpm for 10 min. The supernatant was then centrifuged at 18,000 rpm for 20 min. The pellet was resuspended in 10 ml assay buffer with a Polytron.
The membranes were preincubated with wheat germ agglutinin coated SPA beads (Amersham) at 25° C. for 45 min in the assay buffer. The SPA bead (5 mg/ml) coupled membranes (10 μg/ml) were then incubated with 0.5 nM [^35S]GTPγS in the assay buffer. […] A range of concentrations of receptor agonists was used to stimulate [^35S]GTPγS binding. Both basal and non-specific binding was tested in the absence of agonist; non-specific binding determination included 10 μM unlabeled GTPγS.
Compounds were tested for function as antagonists by evaluating their potential to inhibit agonist-stimulated GTPγS binding. Radioactivity was quantified on a Packard TopCount. The following parameters were calculated:
[formula] % Inhibition=(% stimulation by 1 μM SNC80−% stimulation by 1 μM SNC80 in presence of test compound)×100/(% Stimulation by 1 μM SNC80−100)
EC50 values were calculated using GraphPad Prism.

[4] = target: T4, mu opioid receptor (Rattus norvegicus, UniProt P33535); experiment: Rat Brain Mu Opioid Receptor Binding Assay (and Version 2a, [3H]DAMGO); settings: rat forebrain membranes, margin of error 10-20%, read-out: r Ki μ
T4 construct: from tissue; host or cells: forebrain of male Wistar rats
Description: Male, Wistar rats (150-250 g, VAF, Charles River, Kingston, N.Y.) are killed by cervical dislocation, and their brains removed and placed immediately in ice cold Tris HCl buffer (50 mM, pH 7.4). The forebrains are separated from the remainder of the brain by a coronal transection, beginning dorsally at the colliculi and passing ventrally through the midbrain-pontine junction. After dissection, the forebrains are homogenized in Tris buffer in a Teflon® glass homogenizer. The homogenate is diluted to a concentration of 1 g of forebrain tissue per 80 mL Tris and centrifuged at 39,000×g for 10 min. The pellet is resuspended in the same volume of Tris buffer containing 5 mM MgCl2 with several brief pulses from a Polytron homogenizer. This particulate preparation is used for the mu-opioid binding assays. […] The filters are rinsed three times with 2 mL of 10 mM HEPES (pH7.4), and dried in a microwave oven 2 min twice. To each sample area 2×50 μL of Betaplate Scint scintillation fluid (LKB) is added and analyzed on a LKB (Wallac) 1205 BetaPlate liquid scintillation counter.
The data are used to calculate either the % inhibition compared to control binding (when only a single concentration of test compound is evaluated) or a Ki value (when a range of concentrations is tested). % inhibition is calculated as: [(total dpm-test compound dpm)/(total dpm-nonspecific dpm)]*100. Kd and Ki values were calculated using GraphPad PRISM data analysis program.
Male, Wistar rats (150-250 g, VAF, Charles River, Kingston, N.Y.) were killed by cervical dislocation, and their brains removed and placed immediately in ice-cold Tris HCl buffer (50 mM, pH 7.4). The forebrains were separated from the remainder of the brain by a coronal transection, beginning dorsally at the colliculi and passing ventrally through the midbrain-pontine junction. After dissection, the forebrains were homogenized in Tris buffer in a Teflon®-glass homogenizer. The homogenate was diluted to a concentration of 1 g of forebrain tissue per 80 mL Tris and centrifuged at 39,000×g for 10 min. The pellet was resuspended in the same volume of Tris buffer containing 5 mM MgCl2 with several brief pulses from a Polytron homogenizer. This particulate preparation was used for the mu opioid binding assay. Following incubation with 0.8 nM of the mu selective ligand [^3H]DAMGO at 25° C. for 2.5 h in a 96-well plate with total 1 mL, the plate contents were filtered through Wallac filtermat B sheets on a Tomtec 96-well harvester. The filters were rinsed three times with 2 mL of 10 mM HEPES (pH 7.4), and dried in a microwave oven. To each sample area, Betaplate Scint scintillation fluid (LKB) was added and the resulting radioactivity quantified on a LKB (Wallac) 1205 BetaPlate liquid scintillation counter. Kd and Ki values were calculated using the GraphPad PRISM data analysis program.

[5] = tested on: novel environment-stressed mice; experiment: In Vivo Assay-Stress-Induced Fecal Output (Fecal Output for 1 hr); design: species or system mouse; settings: for Fecal Output (# pellets) cpd / response vs control in vivo at 30 mg/kg: 30 mg/kg oral, 1 hr; for Fecal Output (# pellets) cpd: novel environment-stressed mice; for response vs control in vivo at 30 mg/kg: Mus musculus, po, 1 h; for # of pellets, Compound (m) 3.0 / Fecal pellet output, Compound (% control) 3.0 / Fecal pellet output, Compound (% NES) 3.0: dose 3.0, oral; for # of pellets, Compound (m) 3.0 / Fecal pellet output, Compound (% control) 3.0 / # of pellets, Compound (m) 10.0 / Fecal pellet output, Compound (% control) 10.0 / # of pellets, Compound (m) 30.0 / Fecal pellet output, Compound (% control) 30.0: NES mice; for # of pellets, Compound (m) 3.0 / # of pellets, Compound (m) 10.0 / # of pellets, Compound (m) 30.0: fecal output 1 hr; for Fecal pellet output, Compound (% control) 3.0 / Fecal pellet output, Compound (% control) 10.0 / Fecal pellet output, Compound (% control) 30.0: vs acclimated control; for Fecal pellet output, Compound (% NES) 3.0 / Fecal pellet output, Compound (% NES) 10.0 / Fecal pellet output, Compound (% NES) 30: vs vehicle NES group; for # of pellets, Compound (m) 10.0 / Fecal pellet output, Compound (% control) 10.0 / Fecal pellet output, Compound (% NES) 10.0: dose 10.0, oral; for # of pellets, Compound (m) 30.0 / Fecal pellet output, Compound (% control) 30.0: dose 30.0, oral; for Fecal pellet output, Compound (% NES) 30: dose 30, oral
Description: This assay evaluates the fecal output in novel environment-stressed mice to that of acclimated controls.
Methods: Adult, male, Crl:CD-1(ICR) mice, weighing ˜30-35 g were used in these studies, with a minimum of 10 mice per dose group. One group of mice was assigned as acclimated, or “non-stressed” controls. These control mice were transported from colony housing, where they were housed 3/cage in polycarbonate cages with access to food and water ad lib. to the procedure room. The mice were removed from their home cages and individually housed in 20 cm wide×20 cm deep×15 cm tall cages, equipped with a wire mesh bottom where they remained for a 16-18 hr period of acclimation to their novel environment. Mice were allowed access to food and water ad lib. during acclimation. The other groups of mice were assigned as non-acclimated, or “stressed” treatment groups. Each mouse in each group was weighed and vehicle, or test compound, was intragastrically administered by oral intubation in 0.5% methylcellulose. Mice were allowed access to water only ad lib. during the test period. After compound administrations, acclimated (control) as well as non-acclimated (stressed) mice were individually housed in a 20 cm wide×20 cm deep×15 cm tall cage, with a wire mesh bottom. An absorbant cardboard is placed beneath the cages. The number of fecal pellets excreted by each mouse was determined at hourly intervals following placement of the mice in the individual cages. Raw Data=# of fecal pellets/mouse/hr. […]

[6] = relative to acclimated control, read-out: Fecal Output cpd % control
[7] = relative to novel environment stress (NES) vehicle group, read-out: Fecal Output cpd % NES

T1 sequence (P35372 whole entry): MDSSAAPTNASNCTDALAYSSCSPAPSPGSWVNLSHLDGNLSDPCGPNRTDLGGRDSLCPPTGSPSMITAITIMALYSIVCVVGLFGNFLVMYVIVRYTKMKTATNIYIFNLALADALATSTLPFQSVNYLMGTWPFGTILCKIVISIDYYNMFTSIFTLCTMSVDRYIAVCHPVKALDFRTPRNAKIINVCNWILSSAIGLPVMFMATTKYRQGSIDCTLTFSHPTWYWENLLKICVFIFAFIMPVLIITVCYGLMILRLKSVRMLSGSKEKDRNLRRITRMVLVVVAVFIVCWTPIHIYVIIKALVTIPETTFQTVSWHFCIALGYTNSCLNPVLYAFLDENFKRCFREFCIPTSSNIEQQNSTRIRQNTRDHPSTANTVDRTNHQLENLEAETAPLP
T2 sequence (P41143 whole entry): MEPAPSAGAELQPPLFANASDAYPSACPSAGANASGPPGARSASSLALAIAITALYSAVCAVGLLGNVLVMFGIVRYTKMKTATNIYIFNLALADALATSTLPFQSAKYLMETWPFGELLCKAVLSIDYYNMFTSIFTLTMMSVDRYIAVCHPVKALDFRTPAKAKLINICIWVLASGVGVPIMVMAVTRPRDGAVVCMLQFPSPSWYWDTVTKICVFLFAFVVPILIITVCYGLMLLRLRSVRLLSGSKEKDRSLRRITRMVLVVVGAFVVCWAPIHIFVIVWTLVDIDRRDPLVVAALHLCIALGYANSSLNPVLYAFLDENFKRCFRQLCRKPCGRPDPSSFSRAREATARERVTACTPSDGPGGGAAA
T4 sequence (P33535 whole entry): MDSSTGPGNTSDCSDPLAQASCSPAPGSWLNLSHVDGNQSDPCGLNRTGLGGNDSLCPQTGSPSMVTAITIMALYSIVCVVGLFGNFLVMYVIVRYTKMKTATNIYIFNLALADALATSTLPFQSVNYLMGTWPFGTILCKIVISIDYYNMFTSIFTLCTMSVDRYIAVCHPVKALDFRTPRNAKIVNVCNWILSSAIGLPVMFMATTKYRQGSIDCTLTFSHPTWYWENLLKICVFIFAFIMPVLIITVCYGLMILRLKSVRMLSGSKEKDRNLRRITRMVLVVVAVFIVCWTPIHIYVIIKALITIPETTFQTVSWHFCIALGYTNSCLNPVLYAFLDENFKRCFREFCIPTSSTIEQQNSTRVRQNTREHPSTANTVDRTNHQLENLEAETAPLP
T3 sequence (P35372 whole entry): as the sequence (P35372 whole entry) above

| SMILES | Ki [1] | Ki [2] | Fecal Output (# pellets) cpd [5] | response vs control in vivo at 30 mg/kg [5, 6] | response vs control in vivo at 30 mg/kg [5, 7] | also measured |
| --- | --- | --- | --- | --- | --- | --- |
| Cc1cc(O)cc(C)c1C[C@H](N)C(=O)N(C(C)C)[C@@H](Cc1cccc(C#N)c1)c1nc(-c2ccccc2)c[nH]1 [Cpd 122] | 12.8 nM | 107 nM |  |  |  | MOR GTP binding assay_v1 (% I) ([3]; version 1, % inhibition of agonist-stimulated GTPγS binding): 41.93%; MOR GTP assay_v1 % of Basal ([3]; version 1, basal binding = 100%): 278.08% |
| Cc1cc(O)cc(C)c1C[C@H](N)C(=O)N[C@@H](Cc1cccc(C(N)=O)c1)c1nc(-c2ccccc2)c[nH]1 [Cpd 172] |  |  |  |  |  | Ki [4]: 150 nM |
| Cc1cc(C(=O)N2CCOCC2)cc(C)c1C[C@H](N)C(=O)N(C)[C@@H](C)c1nc(-c2ccccc2)c[nH]1 [Cpd 179] |  |  |  |  |  | Ki [4]: 7120 nM |
| Cc1cc(O)cc(C)c1C[C@H](N)C(=O)N[C@@H](CC(C)C)c1nc(-c2ccccc2)c[nH]1 [Cpd 176] |  |  |  |  |  | Ki [4]: 156 nM |
| Cc1cc(C(N)=O)cc(C)c1C[C@H](N)C(=O)N(Cc1nc(-c2ccccc2)c[nH]1)[C@@H](C)c1ccccc1 [Cpd 95] | 7.8 nM | 278 nM | 8.5 pellets | 315% | 93.4% |  |
| COC(=O)c1ccc(CN(C(=O)[C@@H](N)Cc2c(C)cc(O)cc2C)[C@@H](C)c2nc(-c3ccccc3)c[nH]2)cc1 [Cpd 89] | 9.2 nM | 19.3 nM | 6.4 pellets | 128% | 55.2% |  |
| Cc1cc(O)cc(C)c1C[C@H](N)C(=O)N(Cc1ccccn1)[C@@H](C)c1nc(-c2ccccc2)c[nH]1 [Cpd 93] | 0.9 nM | 9.5 nM | 5.0 pellets | 139% | 45% | # of pellets, Compound (m) 3.0 [5]: 6.2; Fecal pellet output, Compound (% control) 3.0 [5]: 229.6 % control; Fecal pellet output, Compound (% NES) 3.0 [5]: 74.7 % NES; # of pellets, Compound (m) 10.0 [5]: 5.5; Fecal pellet output, Compound (% control) 10.0 [5]: 203.7 % control; Fecal pellet output, Compound (% NES) 10.0 [5]: 66.27 % NES; # of pellets, Compound (m) 30.0 [5]: 3.2; Fecal pellet output, Compound (% control) 30.0 [5]: 119 % control; Fecal pellet output, Compound (% NES) 30 [5]: 38.55 % NES |
| Cc1cc(O)cc(C)c1C[C@H](N)C(=O)N(Cc1cccc(C#N)c1)[C@@H](C)c1nc(-c2ccccc2)c[nH]1 [Cpd 91] | 4.8 nM | 15 nM | 8.9 pellets | 287% | 69% |  |
| Cc1cc(O)cc(C)c1C[C@H](N)C(=O)N(C(C)C)[C@@H](CO)c1nc(-c2ccccc2)c[nH]1 [Cpd 118] | 1.04 nM | 316 nM and 212 nM | 7.2 pellets | 134% | 60.2% |  |
| Cc1cc(O)cc(C)c1C[C@H](N)C(=O)N(Cc1ccc(Cl)c(Cl)c1)Cc1nc(-c2ccccc2)c[nH]1 [Cpd 87] | 12.6 nM | 38.9 nM | 10.3 pellets | 141% | 79.8% |  |
| Cc1cc(C(N)=O)cc(C)c1C[C@H](N)C(=O)N(Cc1nc(-c2ccccc2)c[nH]1)[C@H](C)c1ccccc1 [Cpd 94] | 4.1 nM | 403 nM | 9.4 pellets | 348% | 103% |  |
| COc1ccc(CN(C(=O)[C@@H](N)Cc2c(C)cc(O)cc2C)[C@@H](C)c2nc(-c3ccccc3)c[nH]2)cc1OC [Cpd 102] | 3.5 nM | 5.2 nM | 3.4 pellets | 59.6% | 22.7% | # of pellets, Compound (m) 3.0 [5]: 6.9; Fecal pellet output, Compound (% control) 3.0 [5]: 130.2 % control; Fecal pellet output, Compound (% NES) 3.0 [5]: 64.5 % NES; # of pellets, Compound (m) 10.0 [5]: 4.5; Fecal pellet output, Compound (% control) 10.0 [5]: 84.9 % control; Fecal pellet output, Compound (% NES) 10.0 [5]: 42.06 % NES; # of pellets, Compound (m) 30.0 [5]: 2.22; Fecal pellet output, Compound (% control) 30.0 [5]: 42 % control; Fecal pellet output, Compound (% NES) 30 [5]: 20.77 % NES |
